This test addresses T1, OC15 (mOrange2-CBM15 fusion probe) (Cellvibrio japonicus, UniProt Q59675).
T1 construct: gene xyn10C; CBM15 domain of xylanase Xyn10C, C-terminal; N-terminal His6-mOrange2 reporter, tags kept; single Gly linker; synthetic gene, pET11a, E. coli BL21-Gold(DE3)pLysS; primers imply CBM15 begins VAAS and ends at stop after EAYSAN
Briefly: isothermal titration calorimetry. Particulars: 20 mM Tris-HCl pH 7.5, 20 mM NaCl, 5 mM CaCl2, 25 °C. It counts as binding. The text has this: isothermal titration calorimetry on OC15 (mOrange2-CBM15 fusion probe)

Where two headings read alike, the source gives them in different places.

T1 sequence (Q59675 86-247): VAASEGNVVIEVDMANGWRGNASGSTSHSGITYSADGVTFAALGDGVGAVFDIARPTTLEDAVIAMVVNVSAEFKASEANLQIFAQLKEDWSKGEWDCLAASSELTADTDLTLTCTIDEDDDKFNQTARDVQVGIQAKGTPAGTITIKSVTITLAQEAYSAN

With `OC[C@H]1O[C@@H](O[C@H]2[C@H](O)[C@@H](O)[C@H](O[C@H]3[C@H](O)[C@@H](O)[C@H](O[C@H]4[C@H](O)[C@@H](O)[C@H](O[C@H]5[C@H](O)[C@@H](O)[C@H](O[C@H]6[C@H](O)[C@@H](O)C(O)O[C@@H]6CO)O[C@@H]5CO)O[C@@H]4CO)O[C@@H]3CO)O[C@@H]2CO)[C@H](O)[C@@H](O)[C@@H]1O` (stereo partly shown) [cellohexaose], the Kd by setting is: (cellohexaose of 90 % purity, read-out: K a × 10^3 (M^-1) (converted)) 476 µM; (cellohexaose of 90 % purity, read-out: K d) 479 µM.

Turning to `OC1OC[C@@H](O[C@@H]2OC[C@@H](O[C@@H]3OC[C@@H](O[C@@H]4OC[C@@H](O[C@@H]5OC[C@@H](O[C@@H]6OC[C@@H](O)[C@H](O)[C@H]6O)[C@H](O)[C@H]5O)[C@H](O)[C@H]4O)[C@H](O)[C@H]3O)[C@H](O)[C@H]2O)[C@H](O)[C@H]1O` (stereo partly shown) [xylohexaose], the Kd reads like this: (read-out: K a × 10^3 (M^-1) (converted)) 29.4 µM; (read-out: K d) 29.4 µM.
